# Experiments:
# MKL-2 cells (VP-MCC) = assay: qHTS cell viability (CellTiter-Glo, 72 h; primary and follow-up small molecule screen); format: cell-based, human; conditions: for Percent viability: MKL2, 72h
# HACAT cells = assay: qHTS cell viability (CellTiter-Glo, 72 h; primary screen), control cell line; format: cell-based, human
# MKL-1 cells (VP-MCC) = assay: qHTS cell viability (CellTiter-Glo, 72 h; primary and follow-up small molecule screen); format: cell-based, human; conditions: for Percent viability: MKL1, 72h
# MCC26 cells (VN-MCC) = assay: as above; format: cell-based, human; conditions: for Percent viability: MCC26, 72h
# MCC13 cells (VN-MCC) = assay: as above; format: cell-based, human; conditions: for Percent viability: MCC13, 72h
# NIH-3T3 cells = assay: qHTS cell viability (CellTiter-Glo, 72 h; primary screen), control cell line; format: cell-based, mouse
# HEK293T cells = assay: as above; format: cell-based, human
# UISO cells (VN-MCC) = assay: qHTS cell viability (CellTiter-Glo, 72 h; primary and follow-up small molecule screen); format: cell-based, human; conditions: for Percent viability: UISO, 72h
# WAGA cells (VP-MCC) = assay: as above; format: cell-based, human; conditions: for Percent viability: WAGA, 72h
# CRL-7250 cells = assay: qHTS cell viability (CellTiter-Glo, 72 h; primary screen), control cell line; format: cell-based
# [1] = system: VP-MCC cell lines (WAGA, MKL-1, MKL-2); assay: qHTS cell viability, VP-MCC cell lines as a group (mean AUC, VP.MCC.avg); format: cell-based, human; conditions: re-tested in triplicate, follow-up screen
smiles,measurement,setting,value
COC[C@H]1OC(=O)c2coc3c2[C@@]1(C)C1=C(C3=O)[C@@H]2CC[C@H](O)[C@@]2(C)C[C@H]1OC(C)=O [17_-hydroxy Wortmannin],Area under the dose-response curve (AUC) MKL-2 Replicate 1,MKL-2 cells (VP-MCC),408.4
same,Area under the dose-response curve (AUC) MKL-2 Replicate 2,MKL-2 cells (VP-MCC),434.1
same,Area under the dose-response curve (AUC) MKL-2 Replicate 3,MKL-2 cells (VP-MCC),442.8
same,MKL2_AUC,MKL-2 cells (VP-MCC),431.749
same,HACAT_AUC,HACAT cells,466.176
same,Area under the dose-response curve (AUC) MKL-1 Replicate 1,MKL-1 cells (VP-MCC),417.4
same,Area under the dose-response curve (AUC) MKL-1 Replicate 2,MKL-1 cells (VP-MCC),456.9
same,Area under the dose-response curve (AUC) MKL-1 Replicate 3,MKL-1 cells (VP-MCC),460.6
same,MKL1_AUC,MKL-1 cells (VP-MCC),433.03
same,Area under the dose-response curve (AUC) MCC26 Replicate 1,MCC26 cells (VN-MCC),392.5
same,Area under the dose-response curve (AUC) MCC26 Replicate 2,MCC26 cells (VN-MCC),398.0
same,Area under the dose-response curve (AUC) MCC26 Replicate 3,MCC26 cells (VN-MCC),386.6
same,MCC26_AUC,MCC26 cells (VN-MCC),506.622
same,Area under the dose-response curve (AUC) MCC13 Replicate 1,MCC13 cells (VN-MCC),446.4
same,Area under the dose-response curve (AUC) MCC13 Replicate 2,MCC13 cells (VN-MCC),414.9
same,Area under the dose-response curve (AUC) MCC13 Replicate 3,MCC13 cells (VN-MCC),433.1
same,MCC13_AUC,MCC13 cells (VN-MCC),505.746
same,NIH3T3_AUC,NIH-3T3 cells,465.601
same,HEK293T_AUC,HEK293T cells,476.067
same,Area under the dose-response curve (AUC) UISO Replicate 1,UISO cells (VN-MCC),419.6
same,Area under the dose-response curve (AUC) UISO Replicate 2,UISO cells (VN-MCC),426.0
same,Area under the dose-response curve (AUC) UISO Replicate 3,UISO cells (VN-MCC),431.4
same,UISO_AUC,UISO cells (VN-MCC),484.969
same,Area under the dose-response curve (AUC) WAGA Replicate 1,WAGA cells (VP-MCC),390.4
same,Area under the dose-response curve (AUC) WAGA Replicate 2,WAGA cells (VP-MCC),444.0
same,Area under the dose-response curve (AUC) WAGA Replicate 3,WAGA cells (VP-MCC),465.6
same,WAGA_AUC,WAGA cells (VP-MCC),431.369
same,CRL7250_AUC,CRL-7250 cells,461.56
CC(N[C@H]1CCCC[C@@H]1NC(=O)c1ccc(Cl)cc1)c1cccc2ccccc12 (stereo partly drawn) [Calhex-231],MKL2_AUC,MKL-2 cells (VP-MCC),347.428
same,HACAT_AUC,HACAT cells,466.353
same,MKL1_AUC,MKL-1 cells (VP-MCC),380.302
same,MCC26_AUC,MCC26 cells (VN-MCC),461.125
same,MCC13_AUC,MCC13 cells (VN-MCC),461.512
same,NIH3T3_AUC,NIH-3T3 cells,459.862
same,HEK293T_AUC,HEK293T cells,469.437
same,UISO_AUC,UISO cells (VN-MCC),470.957
same,WAGA_AUC,WAGA cells (VP-MCC),428.682
same,CRL7250_AUC,CRL-7250 cells,474.743
"CCS(=O)(=O)c1cccc(-c2cc(C(=O)NC3CCN(C)CC3)c(C)c3[nH]c4ncc(C)cc4c23)c1 [TAK-901, reference compound]",Percent viability,MKL-2 cells (VP-MCC); Log (M) -5.33646,3.8%
same,Percent viability,MKL-2 cells (VP-MCC); Log (M) -5.81358,12.3%
same,Percent viability,MKL-2 cells (VP-MCC); Log (M) -6.2907,44.7%
same,Percent viability,MKL-2 cells (VP-MCC); Log (M) -6.76782,52.1%
same,Percent viability,MKL-2 cells (VP-MCC); Log (M) -7.24494,44.0%
same,Percent viability,MKL-2 cells (VP-MCC); Log (M) -7.72207,44.3%
same,Percent viability,MKL-2 cells (VP-MCC); Log (M) -8.19919,48.4%
same,Percent viability,MKL-2 cells (VP-MCC); Log (M) -8.67631,94.9%
same,Percent viability,MKL-2 cells (VP-MCC); Log (M) -9.15343,110.4%
same,Percent viability,MKL-2 cells (VP-MCC); Log (M) -9.63055,106.9%
same,Percent viability,MKL-2 cells (VP-MCC); Log (M) -10.1077,102.9%
same,Percent viability,MKL-1 cells (VP-MCC); Log (M) -5.33646,3.5%
same,Percent viability,MKL-1 cells (VP-MCC); Log (M) -5.81358,27.5%
same,Percent viability,MKL-1 cells (VP-MCC); Log (M) -6.2907,14.2%
same,Percent viability,MKL-1 cells (VP-MCC); Log (M) -6.76782,38.9%
same,Percent viability,MKL-1 cells (VP-MCC); Log (M) -7.24494,42.7%
same,Percent viability,MKL-1 cells (VP-MCC); Log (M) -7.72207,48.2%
same,Percent viability,MKL-1 cells (VP-MCC); Log (M) -8.19919,61.6%
same,Percent viability,MKL-1 cells (VP-MCC); Log (M) -8.67631,102.5%
same,Percent viability,MKL-1 cells (VP-MCC); Log (M) -9.15343,100.0%
same,Percent viability,MKL-1 cells (VP-MCC); Log (M) -9.63055,106.9%
same,Percent viability,MKL-1 cells (VP-MCC); Log (M) -10.1077,62.6%
same,Percent viability,MCC26 cells (VN-MCC); Log (M) -5.33646,25.9%
same,Percent viability,MCC26 cells (VN-MCC); Log (M) -5.81358,20.6%
same,Percent viability,MCC26 cells (VN-MCC); Log (M) -6.2907,33.0%
same,Percent viability,MCC26 cells (VN-MCC); Log (M) -6.76782,64.5%
same,Percent viability,MCC26 cells (VN-MCC); Log (M) -7.24494,80.5%
same,Percent viability,MCC26 cells (VN-MCC); Log (M) -7.72207,93.5%
same,Percent viability,MCC26 cells (VN-MCC); Log (M) -8.19919,87.4%
same,Percent viability,MCC26 cells (VN-MCC); Log (M) -8.67631,96.2%
same,Percent viability,MCC26 cells (VN-MCC); Log (M) -9.15343,90.5%
same,Percent viability,MCC26 cells (VN-MCC); Log (M) -9.63055,91.5%
same,Percent viability,MCC26 cells (VN-MCC); Log (M) -10.1077,63.2%
same,Percent viability,MCC13 cells (VN-MCC); Log (M) -5.33646,26.1%
same,Percent viability,MCC13 cells (VN-MCC); Log (M) -5.81358,79.3%
same,Percent viability,MCC13 cells (VN-MCC); Log (M) -6.2907,86.5%
same,Percent viability,MCC13 cells (VN-MCC); Log (M) -6.76782,99.0%
same,Percent viability,MCC13 cells (VN-MCC); Log (M) -7.24494,119.7%
same,Percent viability,MCC13 cells (VN-MCC); Log (M) -7.72207,113.0%
same,Percent viability,MCC13 cells (VN-MCC); Log (M) -8.19919,118.4%
same,Percent viability,MCC13 cells (VN-MCC); Log (M) -8.67631,116.9%
same,Percent viability,MCC13 cells (VN-MCC); Log (M) -9.15343,104.5%
same,Percent viability,MCC13 cells (VN-MCC); Log (M) -9.63055,119.9%
same,Percent viability,MCC13 cells (VN-MCC); Log (M) -10.1077,98.3%
same,Percent viability,UISO cells (VN-MCC); Log (M) -5.33646,2.3%
same,Percent viability,UISO cells (VN-MCC); Log (M) -5.81358,2.9%
same,Percent viability,UISO cells (VN-MCC); Log (M) -6.2907,16.4%
same,Percent viability,UISO cells (VN-MCC); Log (M) -6.76782,39.6%
same,Percent viability,UISO cells (VN-MCC); Log (M) -7.24494,65.2%
same,Percent viability,UISO cells (VN-MCC); Log (M) -7.72207,80.6%
same,Percent viability,UISO cells (VN-MCC); Log (M) -8.19919,77.5%
same,Percent viability,UISO cells (VN-MCC); Log (M) -8.67631,101.9%
same,Percent viability,UISO cells (VN-MCC); Log (M) -9.15343,102.4%
same,Percent viability,UISO cells (VN-MCC); Log (M) -9.63055,103.6%
same,Percent viability,UISO cells (VN-MCC); Log (M) -10.1077,103.5%
same,Percent viability,WAGA cells (VP-MCC); Log (M) -5.33646,14.8%
same,Percent viability,WAGA cells (VP-MCC); Log (M) -5.81358,27.2%
same,Percent viability,WAGA cells (VP-MCC); Log (M) -6.2907,24.4%
same,Percent viability,WAGA cells (VP-MCC); Log (M) -6.76782,45.2%
same,Percent viability,WAGA cells (VP-MCC); Log (M) -7.24494,29.7%
same,Percent viability,WAGA cells (VP-MCC); Log (M) -7.72207,26.6%
same,Percent viability,WAGA cells (VP-MCC); Log (M) -8.19919,95.5%
same,Percent viability,WAGA cells (VP-MCC); Log (M) -8.67631,121.9%
same,Percent viability,WAGA cells (VP-MCC); Log (M) -9.15343,112.0%
same,Percent viability,WAGA cells (VP-MCC); Log (M) -9.63055,114.1%
same,Percent viability,WAGA cells (VP-MCC); Log (M) -10.1077,123.7%
same,VP-MCC viability (in words),[1],consistently and potently reduced VP-MCC viability

# Source: PMC11822212, “High-throughput screening identifies Aurora kinase B as a critical therapeutic target for Merkel cell carcinoma” (Nature Communications, 2025)
